Data on 1 compound can be found in PMC10556625 (Proceedings of the National Academy of Sciences of the …, 2023).

For this data set, the system named is HeLa cells.

As a reminder, the EC50 is the concentration at which the effect is half-maximal. In the case of `N#Cc1c(-n2c(Br)c(Br)c3cc(Br)ccc32)[nH]c2c(Br)cc(Br)cc12` [AETX, aetokthonotoxin], the “Cytotoxicity EC50 on HeLa cells converted to mass concentration” value is recorded as 0.65 µg/mL and it took 1000 nM to reach a half-maximal effect (EC50).
